Measurements reported in US7977362B2, “Alpha-(N-benzenesulfonamido)cycloalkyl derivatives” (Bristol-Myers Squibb Company, priority 2009, dated 2011).

System: Aβ formation (γ-secretase) in H4 cells stably transfected to overexpress the HPLAP-APP fusion protein
Assay: In vitro assay based on the inhibition of Aβ formation in cultured cells
Type: cell-based, human
Details: H4 cells overexpressing HPLAP-APP, 18 hrs incubation at 37° C., Aβ in supernatant by time-resolved fluorescence
Description: Cultured human cell lines, such as HEK293 and H4 cells, which express APP and γ-secretase activity or transfected derivative cell lines that overexpress wild-type APP, mutant APP, or APP fusion proteins will secrete Aβ peptides into the culture media that can be quantified as previously outlined (Dovey, H. et al., J. Neurochem., 76:173-181 (2001)). The incubation of these cultured cells with γ-secretase inhibitors decreases the production of Aβ peptides. For instance, H4 cells stably transfected to overexpress the HPLAP-APP fusion protein described above were grown as above, detached, and adjusted to 2×10^5 cells/ml. 100 μl of the resulting suspension was then added to each well of a 96-well plate. After 4 hrs, the media was removed and replaced with 100 μl serum-free media containing various dilutions of the test compound. Plates were then incubated for 18 hrs at 37° C. and a 100 μl aliquot of the tissue culture supernatant was removed for determination of Aβ levels using time-resolved fluorescence of the homogenous sample as outlined above. Alternately, the other methods described above for Aβ determination could be used. The extent of Aβ inhibition was used to calculate the IC50 value for the test compound.
In the table, an inhibitory concentration (IC50) of less than or equal to 50 nM is represented by +++; between 50 nM and 500 nM by ++; between 500 nM and 5000 nM by +.

[1] = Homo sapiens, 18 h, class symbols
[2] = Homo sapiens, 18 h, numeric values

Row | IC50 [1] | Compound | other results
1 | 500 to 5000 nM | O=S(=O)(N[C@H]1CCCC[C@@H]1CO)c1ccc(Cl)cc1 (single isomer, unassigned) [Compound 14] | 
2 | ≤ 50 nM | O=S(=O)(c1ccc(Cl)cc1)N(Cc1ccc(-c2ncon2)cc1)[C@@H]1CCCC[C@H]1CO (relative stereo) [Compound 5, N-(4-(1,2,4-Oxadiazol-3-yl)benzyl)-4-chloro-N-(trans-2-(hydroxymethyl)cyclohexyl)benzenesulfonamide] | 
3 | ≤ 50 nM | O=S(=O)(c1ccc(Cl)cc1)N(Cc1ccc(-c2ncco2)cc1)[C@@H]1CCCC[C@H]1CO [Compound 18, 4-Chloro-N-((1R,2R)-2-(hydroxymethyl)cyclohexyl)-N-(4-(oxazol-2-yl)benzyl)benzenesulfonamide] | 
4 | ≤ 50 nM | O=S(=O)(c1ccc(Cl)cc1)N(Cc1ccc(-c2ncon2)cc1)[C@@H]1CCCCC[C@H]1CO (relative stereo) [Compound 29, N-(4-(1,2,4-Oxadiazol-3-yl)benzyl)-4-chloro-N-(trans-2-(hydroxymethyl)cycloheptyl)benzenesulfonamide] | 
5 | ≤ 50 nM | N#Cc1cc(F)c(CN([C@@H]2CCCC[C@H]2CO)S(=O)(=O)c2ccc(Cl)cc2)cc1F (relative stereo) [Compound 10, 4-Chloro-N-(4-cyano-2,5-difluorobenzyl)-N-(trans-2-(hydroxymethyl)cyclohexyl)benzenesulfonamide] | 
6 | ≤ 50 nM | N#Cc1ccc(CN([C@@H]2CCCCC[C@H]2CO)S(=O)(=O)c2ccc(Cl)cc2)cc1 (relative stereo) [Compound 28, 4-Chloro-N-(4-cyanobenzyl)-N-(trans-2-(hydroxymethyl)cycloheptyl)benzenesulfonamide] | 

Further lines, the compound ahead of its results:

Row | Compound | IC50 [1] | other results
7 | O=S(=O)(c1ccc(C(F)(F)F)nc1)N(Cc1cc(F)c(-c2ncon2)cc1F)[C@@H]1CCCC[C@H]1CO [Compound 26, N-(2,5-Difluoro-4-(1,2,4-oxadiazol-3-yl)benzyl)-N-((1R,2R)-2-(hydroxymethyl)cyclohexyl)-6-(trifluoromethyl)pyridine-3-sulfonamide] | ≤ 50 nM | 
8 | O=S(=O)(c1ccc(Cl)cc1)N(Cc1ccc(-c2ncon2)cc1)[C@@H]1CCC[C@@H]1CO (relative stereo) [Compound 4, N-(4-(1,2,4-Oxadiazol-3-yl)benzyl)-4-chloro-N-(cis-2-(hydroxymethyl)cyclopentyl)benzenesulfonamide] | 50 to 500 nM | 
9 | O=S(=O)(c1ccc(Cl)cc1)N(Cc1ccc(-c2ncco2)cc1)C1CC2CCC1C2O (centres unmarked) [Compound 34, N-(4-(Oxazol-2-yl)benzyl)-N-(7-hydroxybicyclo[2.2.1]heptan-2-yl)-4-chlorobenzenesulfonamide] | 500 to 5000 nM | 
10 | O=S(=O)(c1ccc(Cl)cc1)N(Cc1ccc(-c2ncco2)cc1)[C@@H]1CCC[C@@H]1CO (relative stereo) [Compound 3, 4-Chloro-N-(cis-2-(hydroxymethyl)cyclopentyl)-N-(4-(oxazol-2-yl)benzyl)benzenesulfonamide] |  | IC50 [2]: 223 nM
11 | O=S(=O)(c1ccc(Cl)cc1)N(Cc1ccc(-c2ncco2)cc1)[C@@H]1CCCCC[C@@H]1CO (relative stereo) [Compound 31, 4-Chloro-N-(cis-2-(hydroxymethyl)cycloheptyl)-N-(4-(oxazol-2-yl)benzyl)benzenesulfonamide] | 50 to 500 nM | 
12 | CC(C)(O)[C@@H]1CCCC[C@H]1N(Cc1ccc(-c2ncco2)cc1F)S(=O)(=O)c1ccc(Cl)cc1 [Compound 23, 4-Chloro-N-(2-fluoro-4-(oxazol-2-yl)benzyl)-N-((1R,2R)-2-(2-hydroxypropan-2-yl)cyclohexyl)benzenesulfonamide] | 500 to 5000 nM | 
13 | O=S(=O)(c1ccc(Cl)s1)N(Cc1ccc(-c2ncon2)cc1)[C@@H]1CCCC[C@H]1CO (relative stereo) [Compound 12, N-(4-(1,2,4-Oxadiazol-3-yl)benzyl)-5-chloro-N-(trans-2-(hydroxymethyl)cyclohexyl)thiophene-2-sulfonamide] | ≤ 50 nM | 
14 | O=S(=O)(c1ccc(C(F)(F)F)nc1)N(Cc1ccc(-c2ncco2)c(F)c1F)[C@@H]1CCCC[C@H]1CO (relative stereo) [Compound 27, N-(2,3-Difluoro-4-(oxazol-2-yl)benzyl)-N-(trans-2-(hydroxymethyl)cyclohexyl)-6-(trifluoromethyl)pyridine-3-sulfonamide] | ≤ 50 nM | 
15 | O=S(=O)(c1ccc(Cl)cc1)N(Cc1ccc(Br)cc1)C1CC2CCC1C2O (centres unmarked) [Compound 33, N-(4-Bromobenzyl)-N-(7-hydroxybicyclo[2.2.1]heptan-2-yl)-4-chlorobenzenesulfonamide] | 500 to 5000 nM | 
16 | O=S(=O)(c1ccc(Cl)cc1)N(Cc1ccc(-c2ncon2)cc1)[C@@H]1CCC[C@H]1CO (relative stereo) [Compound 2, N-(4-(1,2,4-Oxadiazol-3-yl)benzyl)-4-chloro-N-(trans-2-(hydroxymethyl)cyclopentyl)benzenesulfonamide] | 50 to 500 nM | 
17 | O=S(=O)(c1ccc(Cl)cc1)N(Cc1ccc(-c2ncco2)c(F)c1F)[C@@H]1CCCC[C@H]1CO [Compound 16, 4-Chloro-N-(2,3-difluoro-4-(oxazol-2-yl)benzyl)-N-((1R,2R)-2-(hydroxymethyl)cyclohexyl)benzenesulfonamide] |  | IC50 (class symbols): ≤ 50 nM
18 | O=S(=O)(c1ccc(Cl)s1)N(Cc1ccc(-c2ncco2)c(F)c1F)[C@@H]1CCCC[C@H]1CO (relative stereo) [Compound 13, 5-Chloro-N-(2,3-difluoro-4-(oxazol-2-yl)benzyl)-N-(trans-2-(hydroxymethyl)cyclohexyl)thiophene-2-sulfonamide] | ≤ 50 nM | 
19 | O=S(=O)(c1ccc(Cl)cc1)N(Cc1cc(F)c(-c2ncon2)cc1F)[C@@H]1CCCC[C@H]1CO [Compound 21, 4-Chloro-N-(2,5-difluoro-4-(1,2,4-oxadiazol-3-yl)benzyl)-N-((1R,2R)-2-(hydroxymethyl)cyclohexyl)benzenesulfonamide] |  | IC50 (numeric values): 0.15 nM
20 | O=S(=O)(c1ccc(Cl)cc1)N(Cc1cc(F)c(-c2ncco2)cc1F)[C@@H]1CCCC[C@H]1CO [Compound 20, 4-Chloro-N-(2,5-difluoro-4-(oxazol-2-yl)benzyl)-N-((1R,2R)-2-(hydroxymethyl)cyclohexyl)benzenesulfonamide] | ≤ 50 nM | 
21 | O=S(=O)(c1ccc(Cl)cc1)N(Cc1ccc(-c2ncon2)cc1)[C@@H]1CCCC[C@H]1CO (single isomer, unassigned) [Compound 7, N-(4-(1,2,4-oxadiazol-3-yl)benzyl)-4-chloro-N-(trans-2-(hydroxymethyl)cyclohexyl)benzenesulfonamide] |  | IC50 (class symbols): ≤ 50 nM
22 | O=S(=O)(c1ccc(Cl)cc1)N(Cc1ccc(-c2ncon2)cc1)C1CC2CCC1C2O (centres unmarked) [Compound 35, N-(4-(1,2,4-Oxadiazol-3-yl)benzyl)-N-(7-hydroxybicyclo[2.2.1]heptan-2-yl)-4-chlorobenzenesulfonamide] |  | IC50 [2]: 3240 nM
23 | CC(O)[C@@H]1CCCC[C@H]1N(Cc1ccc(-c2ncco2)cc1F)S(=O)(=O)c1ccc(Cl)cc1 (single isomer, unassigned) [Compound 24] |  | IC50 [2]: 2300 nM
